Measured values reported in US20240181087A1, “COMPOSITION FOR CONTRAST IMAGING OF CANCER” (ASTELLAS PHARMA INC., priority 2021, published 2024).

Test system: mouse tumor cell 4T1
Experiment: near-infrared fluorescence imaging after administration into tumor, 4T1 breast cancer model
Type: in vivo
Conditions: 4T1 tumor, 1 mg/mL saline, fluorescence imaging, incl. during tumor excision operation
Description: A syngeneic tumor transplanted mouse model was created as follows referring to “Gan-Shikkan Model no Sakusei to Riyo (Cancer-Creation and Use of Disease Model)” (Takuro Nakamura, LIC, 2012). • (Breast Cancer) A tumor model was created by breeding a normal Balb/c mouse (weight: about 20 g to 30 g) for 14 days with mouse tumor cell 4T1 subcutaneously administered thereto. • (Colorectal Cancer) A tumor model was created by breeding a normal Balb/c mouse (weight: about 20 g to 30 g) for 14 days with CT26 (colorectal cancer cell) subcutaneously administered thereto. • (Skin Cancer) A tumor model was created by breeding a C57BL/6 mouse (weight: about 15 g to 20 g) for 14 days with B16F1 (skin cancer cell) subcutaneously administered thereto.
Subsequently, to the tumor of each of the model mice, 0.02 to 0.05 mL of a saline containing the compound III or ICG (concentration of the compound III or ICG: 1 mg/mL) was administered, and fluorescence imaging was performed transdermally with a near-infrared fluorescence camera (Fluobeam, manufactured by Fluoptics, http://www.solve-net.com/info/wp-content/uploads/downloads/2013/12/Fluobeam.pdf) (excitation wavelength: 780 nm, detection wavelength: 800 nm or more).

**Q.** `CC1(C)C(/C=C/C=C/C=C/C=C2\N(CCCCS(=O)(=O)O)c3ccc4ccccc4c3C2(C)C)=[N+](CCCCS(=O)(=O)[O-])c2ccc3ccccc3c21` [ICG, indocyanine green, reference compound] was tested. Which “drawing of tumor outline / exudation to surrounding tissues” value did it give?
**A.** The value was “fluorescence signals were emitted outside the tumor tissue, and the outline of the tumor could not be drawn”.
